Assay results reported in PMC7355964, “Enhancement in Oral Absorption of Ceftriaxone by Highly Functionalized Magnetic Iron Oxide Nanoparticles” (Pharmaceutics, 2020).
“Also recorded” adds a separate entry of the source.

Experiments:
[1] = In vivo oral pharmacokinetics studies; set-up: species or system Rabbits (Oryctolaguscuniculus); conditions: rabbit, oral CFT aqueous solution
Procedure: The availability of CFT and internal standard cephalexin (CEP) in plasma was determined through reverse phase HPLC protocol developed and validated in our laboratories. The protein precipitation method was taken into account for extracting drug from plasma. Plasma (200 µL) containing both drugs was blended and vortexed with ACN (400 µL) for 2 min and the precipitate was separated by centrifugation at 15,483 G for 10 min. The acquired supernatant was concentrated in vacuum and reconstituted in buffer (TBAH, 100 µL; pH 7.0). A volume of 25 µL was injected into the HPLC system Shimadzu, LC20A (Shimadzu, Kyoto, Japan) equipped with a purospher C18 (5 µm, 250 × 4.6 mm) column. The mobile phase was comprised of ACN and TBAH buffer (0.005 M, pH 7.0) in a ratio of 25:75. The flow rate was adjusted to 1 mL/min, and the wavelength selected was 220 nm.
Animal studies were conducted under institutional guidelines by following the principals of institutional animal care. The studies were approved by the Ethics Committee of International Center for Chemical and Biological Sciences, University of Karachi (Project identification code ICCBS/CBSCR/IEC-014/2018; approved date 06-04-2018). All animals were healthy and purchased for Dow University of Health Sciences OJHA campus Karachi, Pakistan. Rabbits (Oryctolaguscuniculus) with 1.2 kg normal body weight were chosen for the assessment of oral in vivo pharmacokinetics studies. Rabbits were held under standard quarantine conditions with free access to food and water for 12 h. Before conducting the in vivo studies, rabbits were kept under fasting conditions but with free access to water. Rabbits were divided into three distinct categories (n = 4). The first category was given CFT-MIH-MNPs suspension at 25 mg/kg body weight portion. Rabbits of the second and third categories were provided with CFT in oral aqueous solution at 25 and 50 mg/kg body weight. Blood samples (1mL) were collected via marginal ear vein using an insulin plastic syringe at various intervals within 24 h. After centrifugation at 2688 G for 10 min, plasma was acquired and stored at –20 °C. Pharmacokinetics parameters were assessed by linear trapezoidal standard using a non-compartmental model from individual drug plasma concentrations with reference to a time curve for CFT after oral administration of nanoformulation and controls separately. The estimations of maximum drug plasma concentration (Cmax) and time to reach maximum plasma concentration (Tmax) were obtained from the drug plasma concentration curves. These parameters were utilized to ascertain the pharmacokinetics parameters area under the curve from zero to last quantifiable value (AUC0-24), mean residence time (MRT) and clearance (Cl).

[2] = set-up: method as in PMID 23143633; conditions: ref [35]; cited from earlier work

CO/N=C(\C(=O)N[C@@H]1C(=O)N2C(C(=O)O)=C(CSc3nc(=O)c(=O)[nH]n3C)CS[C@H]12)c1csc(N)n1 [CFT, Ceftriaxone] gave a Cmax ([1]; albino, plasma, 50 mg/kg) of 2000 ± 600 ng/mL, an MRT ([1]; albino, plasma, 50 mg/kg) of 8.4 ± 0.1 h and a Tmax ([1]; albino, plasma, 50 mg/kg) of 1.5 h. The AUC(0-t) ([1]; albino, plasma, 50 mg/kg, read-out: AUC0-24) was 16100 ± 3700 ng·h/mL, the “CFT detection in blood plasma (HPLC)” value ([1]; 25 mg/kg) was “no drug was detected; also recorded: no detection of CFT in the blood plasma” and the Clearance ([1]; 50 mg/kg) was 3.91 ± 0.4 L/h. The Volume distribution ([1]; 50 mg/kg) was 33.0 ± 1.94 L, the Clearance ([1]; 50 mg/kg, listed as CFT Solution) was 3.9 ± 0.4 L/h and the “pH (early neutral pH)” value [2] was “about 6.7”.
